{"source": "patent US4001248A", "about": "“N-cycloalkylmethyl decahydroisoquinolines” (Eli Lilly and Company, priority 1974, dated 1977)", "key": {"[1]": {"test_system": "writhing in mice induced by the intraperitoneal injection of acetic acid", "test": "mouse-writhing test (inhibition of writhing induced by intraperitoneal acetic acid)", "type": "in vivo", "conditions": "for ED50: Mus musculus, read-out: Median inhibiting dose (I.D.50)", "description": "In the Table, column 1 gives the name of the compund; column 2, the dosage in mg./kg. of mouse weight; column 3, the route of administration of the drug (\"S.C.\" is subcutaneous and \"or\" is oral); and column 4, the percent inhibition found at the particular dose level. […] Median inhibiting doses (I.D.50) are also included in the Table."}, "[2]": {"test_system": "morphine", "test": "modified rat tail jerk assay, antagonism of morphine", "type": "in vivo, rats", "description": "The ability of the compounds of this invention to antagonize the action of morphine, an opiate, is shown by the following modification of the aforementioned rat tail jerk assay: The standard assay procedure is used with the exception that a 7 amps. current is used instead of a 6 amps. current in the hot wire to decrease the measurable agonist effects of the antagonist. The drugs under test are then administered to groups of rats at different dose levels at different times prior to test, with a 5 mg./kg. dose of morphine invariably being administered 10 minutes prior to test. Positive evidence of antagonism is a decreased reaction time over that to be expected from the morphine. […] Among the compounds of this invention, those in which R in Structure I is cyclopropylmethyl are the preferred antagonists, showing activity in the above test procedure. […] In a series of determinations, it was ascertained that the minimum subcutaneous dose necessary to reduce the analgesic effects of a 5 mg./kg. subcutaneous dose of morphine was in the range 2.5-5.0 mg./kg. and the minimum oral dose, 5-10 mg./kg."}, "[3]": {"conditions": "prior art; cited from earlier work"}, "[4]": {"test_system": "rat tail jerk", "test": "rat tail jerk assay (increase in reaction time over control)", "type": "in vivo", "description": "The compounds of this invention are also active in the rat tail jerk assay, another standard pharmacologic test for analgesic activity of the opiate-type. Such activity is manifested as an increase in the reaction time of the animal in removing (jerking) its tail from a nearby heat stimulus (a resistance wire) after drug administration compared to control time (no drug administered). Table 2 which follows gives the increased reaction times over control times produced by the compounds of this invention when administered subcutaneously. In Tables 2 and 3, column 1 gives the name of the compound; column 2, the dose; column 3, time of observation after administration of the drug; column 4, the increase in reaction time above control in seconds; and column 5, the level of significance of the results (\"p\" value). […] All drugs were administered as aqueous solutions. More than one value for a given dose level indicates multiple determinations. The results are not averaged."}, "[5]": {"conditions": "20 mg./kg. S.C., reading at 0.5 hours"}, "[6]": {"conditions": "20 mg./kg. oral, reading at 0.5 hours"}, "[7]": {"conditions": "100 mg./kg. S.C., reading at 0.5 hours"}, "[8]": {"conditions": "100 mg./kg. oral, reading at 0.5 hours"}}, "note": "Structures can show the parent of a compound that is named as a salt. Where two headings read alike, the source gives them in different places."}
{"smiles": "Oc1cccc([C@]23CCCC[C@@H]2CN(CC2CC2)CC3)c1", "note": "(stereo in doubt) [Trans-dl-1-cyclopropylmethyl-3a-(m-hydroxyphenyl)-1,2,3,3a,4,5,6,7,7a,8-decahydroisoquinoline]", "values": [{"measurement": "% Inhibition", "setting": "[1]; 2 mg./kg. S.C., reading at 0.25 hours", "value": 43, "unit": "%"}, {"measurement": "% Inhibition", "setting": "[1]; 5 mg./kg. S.C., reading at 0.25 hours", "value": 70, "unit": "%"}, {"measurement": "ED50", "setting": "[1]; sc, S.C., readings of this compound at 0.25 hours", "value": "2 to 5", "unit": "mg/kg"}, {"measurement": "antagonism of morphine analgesia", "setting": "[2]; 50 mg./kg. oral, 30 minutes prior to test, morphine 5 mg./kg. 10 minutes prior to test", "value": "reduces the analgesic response to 5 mg./kg. of morphine"}]}
{"smiles": "C=CCN1CC[C@]23c4c5ccc(O)c4O[C@H]2[C@@H](O)C=C[C@H]3[C@H]1C5", "note": "[nalorphine, N-allylnormorphine]", "values": [{"measurement": "opiate antagonist / agonist properties", "setting": "[3]", "value": "highly specific ability to reverse the depressant effects of morphine"}]}
{"smiles": "COc1cccc([C@]23CCCC[C@@H]2CN(CC2CC2)CC3)c1", "note": "(relative stereo) [Trans-dl-1-cyclopropylmethyl-3a-(m-methoxyphenyl)-1,2,3,3a,4,5,6,7,7a,8-decahydroisoquinoline maleate]", "values": [{"measurement": "% Inhibition", "setting": "[1]; 10 mg./kg. S.C., reading at 0.5 hours", "value": 20, "unit": "%"}, {"measurement": "% Inhibition", "setting": "[1]; [5]", "value": 64, "unit": "%"}, {"measurement": "% Inhibition", "setting": "[1]; 20 mg./kg. oral, reading at 0.25 hours", "value": 5, "unit": "%"}, {"measurement": "% Inhibition", "setting": "[1]; [6]", "value": 13, "unit": "%"}, {"measurement": "% Inhibition", "setting": "[1]; 50 mg./kg. oral, reading at 0.25 hours", "value": 79, "unit": "%"}, {"measurement": "% Inhibition", "setting": "[1]; 50 mg./kg. oral, reading at 0.5 hours", "value": 69, "unit": "%"}, {"measurement": "% Inhibition", "setting": "[1]; [7]", "value": 100, "unit": "%"}, {"measurement": "% Inhibition", "setting": "[1]; 100 mg./kg. oral, reading at 0.25 hours", "value": 89, "unit": "%"}, {"measurement": "% Inhibition", "setting": "[1]; [8]", "value": 87, "unit": "%"}, {"measurement": "ED50", "setting": "[1]; sc, S.C.", "value": "10 to 20", "unit": "mg/kg"}, {"measurement": "ED50", "setting": "[1]; oral", "value": "20 to 50", "unit": "mg/kg"}, {"measurement": "Increase in Reaction Time Over Control", "setting": "[4]; oral, 20 mg./kg., 30 min", "value": 1.10, "unit": "s"}, {"measurement": "Increase in Reaction Time Over Control", "setting": "[4]; oral, 20 mg./kg., 120 min", "value": ".20 s"}, {"measurement": "Increase in Reaction Time Over Control", "setting": "[4]; oral, 80 mg./kg., 30 min", "value": 8.05, "unit": "s"}, {"measurement": "Increase in Reaction Time Over Control", "setting": "[4]; oral, 80 mg./kg., 120 min", "value": 1.19, "unit": "s"}, {"measurement": "Increase in Reaction Time Over Control", "setting": "[4]; subcutaneous, 80 mg./kg., 30 min", "value": 1.75, "unit": "s"}, {"measurement": "Increase in Reaction Time Over Control", "setting": "[4]; subcutaneous, 80 mg./kg., 120 min", "value": 1.05, "unit": "s"}]}
{"smiles": "CC(C)=CCN1CCC2(C)c3cc(O)ccc3CC1C2C", "note": "(stereo not shown) [pentazocine]", "values": [{"measurement": "dependance (addiction) liability", "setting": "[3]", "value": "retain a certain degree of opiate dependance liability"}, {"measurement": "opiate antagonist / agonist properties", "setting": "[3]", "value": "both antagonists and agonists"}]}
{"smiles": "Oc1cccc([C@]23CCCC[C@@H]2CN(CC2CCC2)CC3)c1", "note": "(relative stereo) [Trans-dl-1-cyclobutylmethyl-3a-(m-hydroxyphenyl)-1,2,3,3a,4,5,6,7,7a,8-decahydroisoquinoline maleate]", "values": [{"measurement": "% Inhibition", "setting": "[1]; 1 mg./kg. S.C., reading at 0.5 hours", "value": 46, "unit": "%"}, {"measurement": "% Inhibition", "setting": "[1]; 2 mg./kg. S.C., reading at 0.5 hours", "value": 96, "unit": "%"}, {"measurement": "% Inhibition", "setting": "[1]; [5]", "value": 100, "unit": "%"}, {"measurement": "% Inhibition", "setting": "[1]; [6]", "value": 36, "unit": "%"}, {"measurement": "% Inhibition", "setting": "[1]; [7]", "value": 100, "unit": "%"}, {"measurement": "% Inhibition", "setting": "[1]; [8]", "value": 100, "unit": "%"}, {"measurement": "Increase in Reaction Time Over Control", "setting": "[4]; oral, 10 mg./kg., 10 min", "value": ".43 s"}, {"measurement": "Increase in Reaction Time Over Control", "setting": "[4]; oral, 10 mg./kg., 30 min", "value": ".63 s"}, {"measurement": "Increase in Reaction Time Over Control", "setting": "[4]; oral, 10 mg./kg., 60 min", "value": ".21 s"}, {"measurement": "Increase in Reaction Time Over Control", "setting": "[4]; oral, 25 mg./kg., 30 min", "value": 1.71, "unit": "s"}, {"measurement": "Increase in Reaction Time Over Control", "setting": "[4]; oral, 25 mg./kg., 60 min", "value": 1.04, "unit": "s"}, {"measurement": "Increase in Reaction Time Over Control", "setting": "[4]; oral, 50 mg./kg., 30 min", "value": 12.42, "unit": "s"}, {"measurement": "Increase in Reaction Time Over Control", "setting": "[4]; subcutaneous, 0.25 mg./kg., 30 min", "value": ".71 s"}, {"measurement": "Increase in Reaction Time Over Control", "setting": "[4]; subcutaneous, 0.5 mg./kg., 30 min", "value": ".21 s"}, {"measurement": "Increase in Reaction Time Over Control", "setting": "[4]; subcutaneous, 1 mg./kg., 10 min", "value": ".46 s"}, {"measurement": "Increase in Reaction Time Over Control", "setting": "[4]; subcutaneous, 1 mg./kg., 30 min", "value": 1.63, "unit": "s"}, {"measurement": "Increase in Reaction Time Over Control", "setting": "[4]; subcutaneous, 1 mg./kg., 60 min", "value": ".17 s"}, {"measurement": "Increase in Reaction Time Over Control", "setting": "[4]; subcutaneous, 2 mg./kg., 10 min", "value": 2.17, "unit": "s"}, {"measurement": "Increase in Reaction Time Over Control", "setting": "[4]; subcutaneous, 2 mg./kg., 30 min", "value": 2.50, "unit": "s"}, {"measurement": "Increase in Reaction Time Over Control", "setting": "[4]; subcutaneous, 2 mg./kg., 60 min", "value": ".96 s"}, {"measurement": "Increase in Reaction Time Over Control", "setting": "[4]; subcutaneous, 10 mg./kg., 10 min", "value": 17.88, "unit": "s"}, {"measurement": "Increase in Reaction Time Over Control", "setting": "[4]; subcutaneous, 10 mg./kg., 30 min", "value": 23.04, "unit": "s"}, {"measurement": "Increase in Reaction Time Over Control", "setting": "[4]; subcutaneous, 10 mg./kg., 60 min", "value": 22.13, "unit": "s"}]}
{"smiles": "CC(=O)Oc1ccc2c3c1O[C@H]1[C@@H](OC(C)=O)C=C[C@H]4[C@@H](C2)N(C)CC[C@@]341", "note": "[heroin]", "values": [{"measurement": "analgesic activity", "setting": "[3]", "value": "powerful agonist"}, {"measurement": "dependance (addiction) liability", "setting": "[3]", "value": "extremely high addiction potential"}]}
{"smiles": "COc1ccc2c3c1O[C@H]1[C@@H](O)C=C[C@H]4[C@@H](C2)N(C)CC[C@@]341", "note": "[codeine]", "values": [{"measurement": "analgesic activity", "setting": "[3]", "value": "relatively mild analgesic agonist"}, {"measurement": "dependance (addiction) liability", "setting": "[3]", "value": "slight dependance (addiction) liability"}]}
{"smiles": "C=CCN1CC[C@]23c4c5ccc(OC)c4O[C@H]2[C@@H](O)C=C[C@H]3[C@H]1C5", "note": "[N-allylnorcodeine]", "values": [{"measurement": "opiate antagonist / agonist properties", "setting": "[3]", "value": "opiate antagonist"}]}
{"smiles": "COc1cccc([C@]23CCCC[C@@H]2CN(CC2CC2)CC3)c1", "note": "(relative stereo) [Trans-dl-1-cyclopropylmethyl-3a-(m-methoxyphenyl)-1,2,3,3a,4.5,6,7,7a,8-decahydroisoquinoline]", "values": [{"measurement": "antagonism of morphine", "setting": "[2]; dose not stated", "value": "found to antagonize morphine"}]}
{"smiles": "CC1C2Cc3ccc(O)cc3C1(C)CCN2CCc1ccccc1", "note": "(stereo not shown) [phenazocine]", "values": [{"measurement": "dependance (addiction) liability", "setting": "[3]", "value": "retain a certain degree of opiate dependance liability"}, {"measurement": "opiate antagonist / agonist properties", "setting": "[3]", "value": "both antagonists and agonists"}]}
